Patent US8192962B2, “Processes for detecting toxic substances” (Daikin Industries, Ltd., priority 2001, dated 2012)

Tested on: Energy system protein genes
Experiment: DNA chip mRNA expression in yeast, energy system protein genes (Table 4)
Assay type: cell-based, Saccharomyces cerevisiae S288C
How it was run: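 Value is the scanned fluorescence intensity ratio of exposed versus chemical-free cells. Log-phase S288C yeast in YPD at 25° C. received one toxic substance for two hours, dosed to slow growth without killing; Cy3/Cy5-labeled cDNA from oligo-dT-purified mRNA was hybridized to a whole-genome chip at 65° C.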

Cl[C@H]1[C@H](Cl)[C@@H](Cl)[C@@H](Cl)[C@H](Cl)[C@H]1Cl [(7), γ-hexachlorocyclohexane]
The level of expressed mRNA in the presence of chemical substance/The level of expressed mRNA in the absence of chemical substance (yeast gene YAL060W): 3.3 | The level of expressed mRNA in the presence of chemical substance/The level of expressed mRNA in the absence of chemical substance (yeast gene YBL058W, cells incubated two hours with the chemical substance): 1.5 | The level of expressed mRNA in the presence of chemical substance/The level of expressed mRNA in the absence of chemical substance (yeast gene YBL099W, cells incubated two hours with the chemical substance): 0.9 | The level of expressed mRNA in the presence of chemical substance/The level of expressed mRNA in the absence of chemical substance (yeast gene YBR001C, cells incubated two hours with the chemical substance): 0.9 | The level of expressed mRNA in the presence of chemical substance/The level of expressed mRNA in the absence of chemical substance (yeast gene YBR185C, cells incubated two hours with the chemical substance): 1.2 | The level of expressed mRNA in the presence of chemical substance/The level of expressed mRNA in the absence of chemical substance (yeast gene YBR221C, cells incubated two hours with the chemical substance): 1.5 | The level of expressed mRNA in the presence of chemical substance/The level of expressed mRNA in the absence of chemical substance (yeast gene YCL040W): 2.9 | The level of expressed mRNA in the presence of chemical substance/The level of expressed mRNA in the absence of chemical substance (yeast gene YCR012W): 1.4 | The level of expressed mRNA in the presence of chemical substance/The level of expressed mRNA in the absence of chemical substance (yeast gene YCR046C, cells incubated two hours with the chemical substance): 1.2 | The level of expressed mRNA in the presence of chemical substance/The level of expressed mRNA in the absence of chemical substance (yeast gene YCR105W, cells incubated two hours with the chemical substance): 1.0 | The level of expressed mRNA in the presence of chemical substance/The level of expressed mRNA in the absence of chemical substance (yeast gene YDL021W): 5.9 | The level of expressed mRNA in the presence of chemical substance/The level of expressed mRNA in the absence of chemical substance (yeast gene YDL067C, cells incubated two hours with the chemical substance): 0.8 | The level of expressed mRNA in the presence of chemical substance/The level of expressed mRNA in the absence of chemical substance (yeast gene YDL078C, cells incubated two hours with the chemical substance): 1.7 | The level of expressed mRNA in the presence of chemical substance/The level of expressed mRNA in the absence of chemical substance (yeast gene YDL107W, cells incubated two hours with the chemical substance): 1.8 | The level of expressed mRNA in the presence of chemical substance/The level of expressed mRNA in the absence of chemical substance (yeast gene YDL174C): 3.6 | The level of expressed mRNA in the presence of chemical substance/The level of expressed mRNA in the absence of chemical substance (yeast gene YDL181W, cells incubated two hours with the chemical substance): 1.1 | The level of expressed mRNA in the presence of chemical substance/The level of expressed mRNA in the absence of chemical substance (yeast gene YDR001C): 1.5 | The level of expressed mRNA in the presence of chemical substance/The level of expressed mRNA in the absence of chemical substance (yeast gene YDR050C, cells incubated two hours with the chemical substance): 1.5 | The level of expressed mRNA in the presence of chemical substance/The level of expressed mRNA in the absence of chemical substance (yeast gene YDR079W, cells incubated two hours with the chemical substance): 1.3 | The level of expressed mRNA in the presence of chemical substance/The level of expressed mRNA in the absence of chemical substance (yeast gene YDR178W, cells incubated two hours with the chemical substance): 0.6 | The level of expressed mRNA in the presence of chemical substance/The level of expressed mRNA in the absence of chemical substance (yeast gene YDR231C): 1.7 | The level of expressed mRNA in the presence of chemical substance/The level of expressed mRNA in the absence of chemical substance (yeast gene YDR298C, cells incubated two hours with the chemical substance): 1.0 | The level of expressed mRNA in the presence of chemical substance/The level of expressed mRNA in the absence of chemical substance (yeast gene YDR377W, cells incubated two hours with the chemical substance): 1.1 | The level of expressed mRNA in the presence of chemical substance/The level of expressed mRNA in the absence of chemical substance (yeast gene YDR529C, cells incubated two hours with the chemical substance): 0.5 | The level of expressed mRNA in the presence of chemical substance/The level of expressed mRNA in the absence of chemical substance (yeast gene YEL024W, cells incubated two hours with the chemical substance): 0.7 | The level of expressed mRNA in the presence of chemical substance/The level of expressed mRNA in the absence of chemical substance (yeast gene YEL039C, cells incubated two hours with the chemical substance): 0.6 | The level of expressed mRNA in the presence of chemical substance/The level of expressed mRNA in the absence of chemical substance (yeast gene YER178W): 1.6 | The level of expressed mRNA in the presence of chemical substance/The level of expressed mRNA in the absence of chemical substance (yeast gene YFL057C): 1.8 | The level of expressed mRNA in the presence of chemical substance/The level of expressed mRNA in the absence of chemical substance (yeast gene YFR053C): 2.1 | The level of expressed mRNA in the presence of chemical substance/The level of expressed mRNA in the absence of chemical substance (yeast gene YGL018C, cells incubated two hours with the chemical substance): 1.1 | The level of expressed mRNA in the presence of chemical substance/The level of expressed mRNA in the absence of chemical substance (yeast gene YGL062W): 1.3 | The level of expressed mRNA in the presence of chemical substance/The level of expressed mRNA in the absence of chemical substance (yeast gene YGL187C, cells incubated two hours with the chemical substance): 0.6 | The level of expressed mRNA in the presence of chemical substance/The level of expressed mRNA in the absence of chemical substance (yeast gene YGL191W, cells incubated two hours with the chemical substance): 1.0 | The level of expressed mRNA in the presence of chemical substance/The level of expressed mRNA in the absence of chemical substance (yeast gene YGL205W, cells incubated two hours with the chemical substance): 0.8 | The level of expressed mRNA in the presence of chemical substance/The level of expressed mRNA in the absence of chemical substance (yeast gene YGL256W, cells incubated two hours with the chemical substance): 0.5 | The level of expressed mRNA in the presence of chemical substance/The level of expressed mRNA in the absence of chemical substance (yeast gene YGR008C): 3.7 | The level of expressed mRNA in the presence of chemical substance/The level of expressed mRNA in the absence of chemical substance (yeast gene YGR043C): 6.5 | The level of expressed mRNA in the presence of chemical substance/The level of expressed mRNA in the absence of chemical substance (yeast gene YGR062C, cells incubated two hours with the chemical substance, 25° C., YPD medium): 1.3 | The level of expressed mRNA in the presence of chemical substance/The level of expressed mRNA in the absence of chemical substance (yeast gene YGR087C, cells incubated two hours with the chemical substance): 1.0 | The level of expressed mRNA in the presence of chemical substance/The level of expressed mRNA in the absence of chemical substance (yeast gene YGR174C, cells incubated two hours with the chemical substance): 1.0 | The level of expressed mRNA in the presence of chemical substance/The level of expressed mRNA in the absence of chemical substance (yeast gene YGR192C): 1.7 | The level of expressed mRNA in the presence of chemical substance/The level of expressed mRNA in the absence of chemical substance (yeast gene YGR244C): 3.9 | The level of expressed mRNA in the presence of chemical substance/The level of expressed mRNA in the absence of chemical substance (yeast gene YGR254W): 1.5 | The level of expressed mRNA in the presence of chemical substance/The level of expressed mRNA in the absence of chemical substance (yeast gene YHR179W): 1.9 | The level of expressed mRNA in the presence of chemical substance/The level of expressed mRNA in the absence of chemical substance (yeast gene YIL160C): 1.1 | The level of expressed mRNA in the presence of chemical substance/The level of expressed mRNA in the absence of chemical substance (yeast gene YIR031C, cells incubated two hours with the chemical substance): 1.4 | The level of expressed mRNA in the presence of chemical substance/The level of expressed mRNA in the absence of chemical substance (yeast gene YJL052W): 2.1 | The level of expressed mRNA in the presence of chemical substance/The level of expressed mRNA in the absence of chemical substance (yeast gene YJL121C, cells incubated two hours with the chemical substance): 0.7 | The level of expressed mRNA in the presence of chemical substance/The level of expressed mRNA in the absence of chemical substance (yeast gene YJL166W, cells incubated two hours with the chemical substance): 0.8 | The level of expressed mRNA in the presence of chemical substance/The level of expressed mRNA in the absence of chemical substance (yeast gene YJL216C, cells incubated two hours with the chemical substance): 1.5
